Measurements reported in ChEMBL document CHEMBL1201862, “PubChem BioAssay data set” (2004).
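Dose response: 5 concentrations. Exposure: 48 h. Format: 96-well plates. Endpoint: linear interpolation; highest concentration if not reached. GI50: concentration for 50% inhibition of growth.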 Active and inactive are the calls of the source. Rule as the data show it: active = GI50 up to about 1.1 µM and inactive = higher.

Assays:
Assay in all cases: inhibition of tumour cell growth, NCI panel, 48 h
[1] = system: 786-0
[2] = system: A498
[3] = system: A549
[4] = system: ACHN
[5] = system: CAKI-1
[6] = system: COLO 205
[7] = system: DLD-1
[8] = system: DMS-114
[9] = system: DMS-273
[10] = system: EKVX
[11] = system: HCC 2998
[12] = system: HCT-116
[13] = system: HCT-15
[14] = system: HL-60
[15] = system: HOP-18
[16] = system: HOP-62
[17] = system: HOP-92
[18] = system: HT-29
[19] = system: IGROV-1
[20] = system: K562
[21] = system: KM-20L2
[22] = system: KM12
[23] = system: LXFL 529
[24] = system: M14
[25] = system: M19-MEL
[26] = system: MOLT-4
[27] = system: Malme-3M
[28] = system: NCI-H226
[29] = system: NCI-H23
[30] = system: NCI-H460
[31] = system: NCI-H522
[32] = system: OVCAR-3
[33] = system: OVCAR-4
[34] = system: OVCAR-5
[35] = system: OVCAR-8
[36] = system: RPMI-8226
[37] = system: RXF 393
[38] = system: RXF 631
[39] = system: SF-268
[40] = system: SF-295
[41] = system: SF-539
[42] = system: SK-MEL-28
[43] = system: SK-MEL-2
[44] = system: SK-MEL-5
[45] = system: SK-OV-3
[46] = system: SN12C
[47] = system: SNB-19
[48] = system: SNB-75
[49] = system: SNB-78
[50] = system: SR
[51] = system: SW-620
[52] = system: TK-10
[53] = system: U-251
[54] = system: UACC-257
[55] = system: UACC-62
[56] = system: UO-31
[57] = system: XF498
[58] = system: CCRF-CEM
[59] = system: LOX IMVI

For `COCN1COCN/C1=N\C#N`, the GI50 [1] was > 100 µM (inactive), the GI50 [2] was > 100 µM (inactive) and the GI50 [3] was > 100 µM (inactive). For the same compound, the GI50 [4] was > 100 µM (inactive), the GI50 [5] was > 100 µM (inactive) and the GI50 [6] was 41 µM (inactive). For the same compound, the GI50 [7] was > 100 µM (inactive), the GI50 [8] was > 100 µM (inactive) and the GI50 [9] was 98.2 µM (inactive). For the same compound, the GI50 [10] was > 100 µM (inactive), the GI50 [11] was > 100 µM (inactive) and the GI50 [12] was > 100 µM (inactive). For the same compound, the GI50 [13] was 51.8 µM, the GI50 [14] was > 100 µM (inactive) and the GI50 [15] was > 100 µM (inactive). The GI50 [16] was > 100 µM (inactive), the GI50 [17] was > 100 µM (inactive) and the GI50 [18] was > 100 µM (inactive). The GI50 [19] was > 100 µM (inactive), the GI50 [20] was 88.3 µM (inactive) and the GI50 [21] was > 100 µM (inactive). For the same compound, the GI50 [22] was > 100 µM (inactive), the GI50 [23] was > 100 µM (inactive) and the GI50 [24] was > 100 µM (inactive). For the same compound, the GI50 [25] was > 100 µM (inactive), the GI50 [26] was > 100 µM (inactive) and the GI50 [27] was > 100 µM (inactive). For the same compound, the GI50 [28] was > 100 µM (inactive), the GI50 [29] was > 100 µM (inactive) and the GI50 [30] was > 100 µM (inactive). The GI50 [31] was > 100 µM (inactive), the GI50 [32] was > 100 µM (inactive) and the GI50 [33] was 75.5 µM (inactive). The GI50 [34] was > 100 µM (inactive), the GI50 [35] was > 100 µM (inactive) and the GI50 [36] was > 100 µM (inactive). The GI50 [37] was 83.2 µM (inactive), the GI50 [38] was > 100 µM (inactive) and the GI50 [39] was > 100 µM (inactive). The GI50 [40] was > 100 µM (inactive), the GI50 [41] was > 100 µM (inactive) and the GI50 [42] was > 100 µM (inactive). The GI50 [43] was > 100 µM (inactive), the GI50 [44] was > 100 µM (inactive) and the GI50 [45] was > 100 µM (inactive). The GI50 [46] was > 100 µM (inactive), the GI50 [47] was > 100 µM (inactive) and the GI50 [48] was > 100 µM (inactive). For the same compound, the GI50 [49] was > 100 µM (inactive), the GI50 [50] was 20.9 µM (inactive) and the GI50 [51] was 22.5 µM (inactive). The GI50 [52] was > 100 µM (inactive), the GI50 [53] was > 100 µM (inactive) and the GI50 [54] was > 100 µM (inactive). The GI50 [55] was > 100 µM (inactive), the GI50 [56] was > 100 µM (inactive) and the GI50 [57] was > 100 µM (inactive).
For `CCc1nc2c(O)ccc(O)c2nc1C`, the GI50 [1] was 13.5 µM (inactive), the GI50 [2] was 20.9 µM (inactive) and the GI50 [3] was 21.8 µM (inactive). For the same compound, the GI50 [4] was 10.7 µM (inactive), the GI50 [5] was 18.1 µM (inactive) and the GI50 [58] was 2.9 µM (inactive). For the same compound, the GI50 [6] was 2.53 µM (inactive), the GI50 [7] was 2.9 µM (inactive) and the GI50 [8] was 18.2 µM (inactive). For the same compound, the GI50 [9] was 19.9 µM (inactive), the GI50 [10] was 17.3 µM (inactive) and the GI50 [11] was 24.6 µM (inactive). For the same compound, the GI50 [12] was 8.38 µM (inactive), the GI50 [13] was 16.4 µM and the GI50 [14] was 2.93 µM (inactive). The GI50 [15] was 20.9 µM (inactive), the GI50 [16] was 18 µM (inactive) and the GI50 [17] was 5.64 µM (inactive). For the same compound, the GI50 [18] was 17.2 µM (inactive), the GI50 [19] was 19 µM (inactive) and the GI50 [20] was 4.08 µM (inactive). For the same compound, the GI50 [21] was 18.6 µM (inactive), the GI50 [22] was 17 µM (inactive) and the GI50 [59] was 16.2 µM (inactive). For the same compound, the GI50 [23] was 4.97 µM (inactive), the GI50 [24] was 15 µM (inactive) and the GI50 [25] was 7.35 µM (inactive). For the same compound, the GI50 [26] was 3.65 µM (inactive), the GI50 [27] was 15.8 µM (inactive) and the GI50 [28] was 15.8 µM (inactive). The GI50 [29] was 18.6 µM (inactive), the GI50 [30] was 19.2 µM (inactive) and the GI50 [31] was 2.56 µM (inactive). The GI50 [32] was 14.7 µM (inactive), the GI50 [33] was 6.75 µM (inactive) and the GI50 [34] was 19.3 µM (inactive). The GI50 [35] was 10 µM (inactive), the GI50 [36] was 3.8 µM (inactive) and the GI50 [37] was 11.5 µM (inactive). For the same compound, the GI50 [38] was 19.1 µM (inactive), the GI50 [39] was 18.7 µM (inactive) and the GI50 [40] was 20 µM (inactive). For the same compound, the GI50 [41] was 17 µM (inactive), the GI50 [42] was 19.6 µM (inactive) and the GI50 [43] was 18 µM (inactive). The GI50 [44] was 17.5 µM (inactive), the GI50 [45] was 20 µM (inactive) and the GI50 [46] was 16 µM (inactive). For the same compound, the GI50 [47] was 18.9 µM (inactive), the GI50 [48] was 20.8 µM (inactive) and the GI50 [49] was 27.8 µM (inactive). The GI50 [50] was 18.2 µM (inactive), the GI50 [51] was 2.15 µM (inactive) and the GI50 [52] was 22.5 µM (inactive). The GI50 [53] was 16.5 µM (inactive), the GI50 [54] was 17.4 µM (inactive) and the GI50 [55] was 14.3 µM (inactive). The GI50 [56] was 19.3 µM (inactive) and the GI50 [57] was 24.2 µM (inactive).
